Data as given in patent publication US7811778B2, “Methods of screening for gastrointestinal cancer” (Vanderbilt University, priority 2006, dated 2010).
“Also recorded” adds a separate entry of the source.

Test system: emerging SPEM cells at the bases of fundic glands
Test: Gene microarray analysis of laser-capture microdissected chief cells and emerging SPEM cells (Affymetrix Mouse 430 2.0)
Assay type: in vivo, gastrin-deficient mice
Experimental: See Nomura, S., Yamaguchi, H., Wang, T. C., Lee, J. R., and Goldenring, J. R. 2004. Alterations in gastric mucosal lineages induced by acute oxyntic atrophy in wild type and gastrin deficient mice. Amer. J. Physiol. 288:G362-G375. […] To examine this hypothesis more directly, chief cells were microdissected from the very bases of untreated gastrin knockout mice as well as SPEM cells at the base of fundic glands after 1 and 3 days of treatment with DMP-777. Total RNA was prepared from 10,000 cells isolated from 4 different mice in each group. For each of the 12 samples, linear amplification was performed and Affymetrix Mouse 2.0 gene microarrays were probed. […] Second, 30 genes were identified as being involved in G1-S interface transition, including 5 MCM proteins, BRCA1, RIS2, RAD51, TACC3 and ligase1. Immunocytochemistry was used to confirm the upregulation of MCM3 as well as TACC3 in SPEM cells located at the base of fundic glands in mice treated for 1 or 3 days with DMP-777. All of these changes are consistent with alterations moving towards a proliferative phenotype. […] See Nomura, S., Yamaguchi, H., Wang, T. C., Lee, J. R., and Goldenring, J. R. 2004. Alterations in gastric mucosal lineages induced by acute oxyntic atrophy in wild type and gastrin deficient mice. Amer. J. Physiol. 288:G362-G375. Thus the up-regulation of proteins involved in the G1/S interface is also consistent with transdifferentiation of chief cells into SPEM, since such changes would require a global transcriptome, alterations that would require unwinding of DNA and changes in gene activation including alteration in DNA methylation.
Gastrin-deficient mice were constructed by targeted disruption of the gastrin gene and were maintained on a C57BL/6 background (Nomura S, Yamaguchi H, Wang T C, Lee J R, Goldenring J R. Alterations in gastric mucosal lineages induced by acute oxyntic atrophy in wild type and gastrin deficient mice. Amer.J.Physiol. 2004; In Press). Mice were treated for 1 or 3 days with oral gavage administration of DMP-777 (a gift of DuPont Pharmaceuticals), formulated in 0.5% methylcellulose (administered orally as a gavage once daily at 350 mg/kg/day). Untreated mice were utilized as controls. Mice were sacrificed and their stomachs were excised and opened along the greater curvature and processed for frozen sections for laser capture microdissection. From the untreated Gastrin-deficient mice, chief cells were microdissected from the bases of gastric glands. The emerging SPEM cells were microdissected from the bases of fundic glands of DMP-777-treated Gastrin-deficient mice after 1 or 3 days of oral drug administration. Cell collections (10,000 cells) and extractions of total RNA were performed as previously described (Nomura S, Baxter S, Yamaguchi T, Leys C, Vartapetian A B, Fox J G, Lee J R, Wang T C, Goldenring J R. Relationship of spasmolytic polypeptide expressing metaplasia (SPEM) to pre-neoplasia in H. felis-infected mice. Gastroenterology 2004; 127:582-594).
Total RNA from microdissected cells were reverse transcribed and amplified through two rounds of linear amplification using a Nugen Ovation kit to amplify and label 10-20 ng of RNA. The resulting single-strand cDNA product was purified by binding to and elution from a Qiagen QIAQUICK® column. The cDNA product was then quantitated and 2.2 μg of the fragmented, labeled product was hybridized to Affymetrix Mouse 430 2.0 microarrays overnight, with staining and scanning performed the next day. Gene expression was analyzed among microdissected cells from 4 untreated gastrin-deficient mice 4 mice treated with DMP-777 for one day and 4 mice treated with DMP-777 for three days. The raw gene expression data (.cel files) were converted to expression values using the Affy function in R (see the Bioconductor website). […]

[1] = DMP-777-treated gastrin-deficient mice, microarray
[2] = gastrin knockout mice, 1 day of DMP-777, SPEM cells vs untreated chief cells, fold increases indicated as the exponential of 2
[3] = gastrin knockout mice, 3 days of DMP-777, SPEM cells vs untreated chief cells, fold increases indicated as the exponential of 2
[4] = gastrin-deficient mice, 350 mg/kg/day oral, 1 day, microdissected SPEM cells vs untreated chief cells

CCC[C@@H](NC(=O)N1C(=O)C(CC)(CC)[C@@H]1Oc1ccc(C(=O)N2CCN(C)CC2)cc1)c1ccc2c(c1)OCO2 [DMP-777]
pro-apoptotic genes in the cohort of up-regulated gene transcripts (1 and 3 days of DMP-777-treatment): there were not any pro-apoptotic genes detected; also recorded: No pro-apoptotic genes were detected | number of up-regulated genes involved in G1-S interface transition (DMP-777 1 and 3 days, at least 2 fold change): 30 | number of the top 50 probes for up-regulated transcripts that detect regulators of the G1/S transition [1]: 34 | transcripts for lipase, a chief cell product [1]: significant decrease | BRRN1, Day 1 Fold increase, Relative to Control [2]: 2.2 Fold | CRIP1, Day 1 Fold increase, Relative to Control [2]: 3.2 Fold | EREG, Day 1 Fold increase, Relative to Control [2]: 1.8 Fold | EXOSC8, Day 1 Fold increase, Relative to Control [2]: 2.6 Fold | EXPI, Day 1 Fold increase, Relative to Control [2]: 2.4 Fold | FIGNL1, Day 1 Fold increase, Relative to Control [2]: 3.3 Fold | IL1RN, Day 1 Fold increase, Relative to Control [2]: 4.7 Fold | LGALS3, Day 1 Fold increase, Relative to Control [2]: 5.5 Fold | NELF, Day 1 Fold increase, Relative to Control [2]: 2.1 Fold | S100A4, Day 1 Fold increase, Relative to Control [2]: 2.8 Fold | TMEM40, Day 1 Fold increase, Relative to Control [2]: 1.4 Fold | TMEM109, Day 1 Fold increase, Relative to Control [2]: 2.5 Fold | TR1P13, Day 1 Fold increase, Relative to Control [2]: 3.5 Fold | BRRN1, Day 3 Fold Increase, Relative to Control [3]: 3.1 Fold | CRIP1, Day 3 Fold Increase, Relative to Control [3]: 5.4 Fold | EREG, Day 3 Fold Increase, Relative to Control [3]: 4.8 Fold | EXOSC8, Day 3 Fold Increase, Relative to Control [3]: 2.8 Fold | EXPI, Day 3 Fold Increase, Relative to Control [3]: 8.4 Fold | FIGNL1, Day 3 Fold Increase, Relative to Control [3]: 2.7 Fold | IL1RN, Day 3 Fold Increase, Relative to Control [3]: 4.2 Fold | LGALS3, Day 3 Fold Increase, Relative to Control [3]: 7.3 Fold | NELF, Day 3 Fold Increase, Relative to Control [3]: 3.7 Fold | S100A4, Day 3 Fold Increase, Relative to Control [3]: 2.5 Fold | TMEM40, Day 3 Fold Increase, Relative to Control [3]: 6.9 Fold | TMEM109, Day 3 Fold Increase, Relative to Control [3]: 3.6 Fold | TR1P13, Day 3 Fold Increase, Relative to Control [3]: 3.0 Fold | 5ssca1 transcript, 1 DAY DMP-777 vs CONTROL [4]: 8.9 | Atf3 transcript, 1 DAY DMP-777 vs CONTROL [4]: 311.4 | Cdc2a transcript, 1 DAY DMP-777 vs CONTROL [4]: 11.7 | Cdca1 transcript, 1 DAY DMP-777 vs CONTROL [4]: 9.2 | Cdca5 transcript, 1 DAY DMP-777 vs CONTROL [4]: 17.3 | CdcaS transcript, 1 DAY DMP-777 vs CONTROL [4]: 7.3 | Cenph transcript, 1 DAY DMP-777 vs CONTROL [4]: 25.7 | Clspn transcript, 1 DAY DMP-777 vs CONTROL [4]: 9.5 | Crip1 transcript, 1 DAY DMP-777 vs CONTROL [4]: 9.5 | Dcc1 transcript, 1 DAY DMP-777 vs CONTROL [4]: 8.8 | Ereg transcript, 1 DAY DMP-777 vs CONTROL [4]: 3.6 | ExoscB transcript, 1 DAY DMP-777 vs CONTROL [4]: 6.2 | Fignl1 transcript, 1 DAY DMP-777 vs CONTROL [4]: 10.2 | Gadd45b transcript, 1 DAY DMP-777 vs CONTROL [4]: 8.6 | Il1m transcript, 1 DAY DMP-777 vs CONTROL [4]: 25.4 | Lgals3 transcript, 1 DAY DMP-777 vs CONTROL [4]: 46.8 | Lig1 transcript, 1 DAY DMP-777 vs CONTROL [4]: 9.3 | Mcm6 transcript, 1 DAY DMP-777 vs CONTROL [4]: 25.1 | Ncapg transcript, 1 DAY DMP-777 vs CONTROL [4]: 7.5 | Pole transcript, 1 DAY DMP-777 vs CONTROL [4]: 7.5 | Rad51 transcript, 1 DAY DMP-777 vs CONTROL [4]: 13.5 | Rad54b transcript, 1 DAY DMP-777 vs CONTROL [4]: 6.7 | Rfc3 transcript, 1 DAY DMP-777 vs CONTROL [4]: 8.1 | Rfc4 transcript, 1 DAY DMP-777 vs CONTROL [4]: 8.5 | Rrm1 transcript, 1 DAY DMP-777 vs CONTROL [4]: 8.4 | Tk1 transcript, 1 DAY DMP-777 vs CONTROL [4]: 10.1
